The values below come from US6365628B1 (Thia Medica AS, priority 1998, dated 2002).

For series [1], the system named is Escherichia coli. Briefly: Test for mutagenic activity in Escherichia coli strains. It counts as cell-based. To be noted: 3-1000 mg/plate (TTA) 2-5000 mg/plate (TSA). The text has this:
Tests for mutagenic activity have been performed by Covance Laboratories Limited, England. […] Furthermore, TTA was not mutagenic when tested in mouse lymphoma cells […] L5178Y.

In series [2] the test system is male Wistar rats. As to the kind of experiment: Body weight of male Wistar rats after 12 weeks of treatment (Example 6). It counts as in vivo, rat. To be noted: oral TTA. Here is the method:
2 groups of 6 male Wistar Rats were randomly selected, and studied for weight development over a period of 12 week. The body weight of each Wistar rat was measured at the start of the experiment. All animals in both groups received individually the same amount of food (nutrition) during the experimental period of 12 weeks. All animals in one of the groups were orally administrated with the medicament comprising TTA. The other group was the control group (CMC). After the 12 week period the body weight of rats were measured again.

In series [3] the test system is male dogs. As to the kind of experiment: Body weights of male dogs treated for 4 weeks (Example 10). It counts as in vivo, dog. As to conditions: 500 mg/kg/day orally in capsules. Here is the method: 3 male dogs (4-6 months old) were housed singly during the days. Each animal was offered 400 g of SQC Diet A each morning after dosing and any residue diet was removed in the afternoon. The drug was administered orally in capsules once daily for 28 days.

In series [4] the test system is old obese Zucker rats. Briefly: Plasma free fatty acids, ketone bodies and liver HMG-CoA synthase in old obese Zucker rats (Table 7). To be noted: 21 week-old male obese Zucker (fa/fa) rats, standard diet with 0.15% TTA for 15 days, means ± SD. It counts as in vivo, rat. Here is the method:
Glucose (GLU, Boehringer Mannheim, Germany), free fatty acids (NEFA, C ACS-ACOD kit; Wako Chemicals, Dalton, USA) and b-hydroxybutyrate (310-A kit; Sigma Diagnostics Inc., St. Louis, USA) concentrations were measured using enzymatic methods. Insulin concentrations were determined with radioimmunoassay by (CIS bio International, Gif sur Yvette, France) using rat insulin as standard in the Zucker rats. In the Wistar Charles River rats, plasma glucose concentrations were measured with the aid of Beckman Glucose Analyzer (Fullerton, Calif., USA). Plasma insulin levels were measured using a RIA kit from Linco Research Inc. (St. Charles, Mo., USA). Phospholipids were measured by the enzymatic method of bioMérieux, Marcy-l {grave over ( )}Etoile, France, Triacylglycerol by the Technicon Method no. SA4-0324L90, USA and Cholesterol by the Technicon Method no. SA4-0305L90, USA.
Freshly isolated livers from individual old Zucker rats, were homogenised in ice-cold sucrose buffer (0.25 M sucrose, 10 mM HEPES (pH 7.4) and 2 mM EDTA). Post-nuclear and mitochondrial fractions were prepared using preparative differential centrifugation according to DeDuve et al. (De Duve, C., et al., Biochem. J., 60, 604-617 1955.) Modifications, purity and yield were as described earlier (Garras, A., et al., Biochim. Biophys. Acta, 1255, 154-160 1995.). Acid soluble products were measured in post-nuclear and mitochondrial enriched fractions, using [1-^14C]-palmitoyl-CoA and [1-^14C]-palmitoyl-L-carnitine (Radiochemical Centre, Amersham, England) as substrates as described earlier (Willumsen, N., et al., J. Lipid Res., 34, 13-22 1993. Carnitine palmitoyltransferase-I and -II activities were measured in the post-nuclear and mitochondrial fractions essentially as described by Bremer (Bremer, J., Biochim. Biophys. Acta, 665, 628-631 1981.) and 3-hydroxy-3-methylglutharyl-CoA synthase was measured according to Clinkenbeard et al. (Clinkenbeard, K. D., et al., J. Biol. Chem, 250, 3108-3116 1975.) in the mitochondrial fractions.
Data are means±SD of six animals in both the control- and the experimental group. Free fatty acids (FFA) and ketone bodies ([…]) were measured in plasma and 3-hydroxy-3-methylglutaryl (HMG) -CoA synthase activities were measured in mitochondrial fractions prepared from the liver from 21 week-old male obese Zucker (fa/fa) rats given either a standard diet (control) or a standard diet enriched with 0.15% TTA for 15 days.

Series [5] concerns the target T1, PPARγ (Homo sapiens, UniProt P37231).
T1 sequence (P37231 1-505): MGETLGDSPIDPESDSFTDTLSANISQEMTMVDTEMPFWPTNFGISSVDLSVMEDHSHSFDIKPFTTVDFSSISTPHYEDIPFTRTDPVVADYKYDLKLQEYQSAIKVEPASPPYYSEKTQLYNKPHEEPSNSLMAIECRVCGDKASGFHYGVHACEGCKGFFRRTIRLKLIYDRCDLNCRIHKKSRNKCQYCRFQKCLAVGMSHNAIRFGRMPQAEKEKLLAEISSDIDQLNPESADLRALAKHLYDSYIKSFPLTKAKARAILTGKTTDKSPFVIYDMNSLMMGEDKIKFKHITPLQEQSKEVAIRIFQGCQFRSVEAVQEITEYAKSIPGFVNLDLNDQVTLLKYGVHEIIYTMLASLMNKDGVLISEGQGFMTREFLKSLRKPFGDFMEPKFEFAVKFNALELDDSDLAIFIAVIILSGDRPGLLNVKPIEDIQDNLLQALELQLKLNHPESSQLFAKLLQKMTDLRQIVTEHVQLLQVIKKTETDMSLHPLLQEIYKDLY
Briefly: Ligand of PPARγ. It counts as binding.

As for Tetradecylthioacetic acid [TTA], the “Induction of mutations in strains of Escherichia coli” value in series [1] is listed as “did not induce mutations”. This substance also had a Body weight gain/grams in series [2] of 234 ± 20 grams. Moreover, the “Mean body weight (kg)” value in series [3] (week 0) is 9,22 ± 1,77 kg; in series [3] (week 1), 8,95 kg; in series [3] (week 2), 8,75 ± 1,58 kg; in series [3] (week 3), 8,58 kg; in series [3] (week 4) it was 8,50 ± 1,74 kg. For the same substance, the “HMG-CoA synthase activity (nmol/min/mg protein)” value in series [4] (liver mitochondrial fractions) is recorded as 27 ± 6 nmol/min/mg protein. Moreover, the “4-OH butyrate” value in series [4] (plasma) is on record as 3.44 ± 1.37 mmol/L. Also, the “FFA (mEq/L)” value in series [4] (plasma) amounted to 0.53 ± 0.21 mEq/L. The FFA/ketone ratio in series [4] (plasma) amounted to 0.17 ± 0.09. For the same substance, the “Ligand of PPARγ” value in series [5] was “less potent ligand”.
